According to patent US5596008A, “3,4-Diaryl substituted pyridines for the treatment of inflammation” (G. D. Searle & Co., priority 1995, dated 1997):
Where two headings read alike, the source gives them in different places.

Key:
COX-2 murine = target: T1, COX-2 murine (Mus musculus, UniProt Q05769); assay: COX-2 activity in vitro (recombinant enzyme, PGE2 ELISA); format: biochemical
T1 construct: human or murine COX-2 was cloned into a BamH1 site of the baculovirus transfer vector pVL1393; made in house; host or cells: SF9 insect cells (recombinant baculovirus, vector pVL1393)
T1 sequence (Q05769 18-604): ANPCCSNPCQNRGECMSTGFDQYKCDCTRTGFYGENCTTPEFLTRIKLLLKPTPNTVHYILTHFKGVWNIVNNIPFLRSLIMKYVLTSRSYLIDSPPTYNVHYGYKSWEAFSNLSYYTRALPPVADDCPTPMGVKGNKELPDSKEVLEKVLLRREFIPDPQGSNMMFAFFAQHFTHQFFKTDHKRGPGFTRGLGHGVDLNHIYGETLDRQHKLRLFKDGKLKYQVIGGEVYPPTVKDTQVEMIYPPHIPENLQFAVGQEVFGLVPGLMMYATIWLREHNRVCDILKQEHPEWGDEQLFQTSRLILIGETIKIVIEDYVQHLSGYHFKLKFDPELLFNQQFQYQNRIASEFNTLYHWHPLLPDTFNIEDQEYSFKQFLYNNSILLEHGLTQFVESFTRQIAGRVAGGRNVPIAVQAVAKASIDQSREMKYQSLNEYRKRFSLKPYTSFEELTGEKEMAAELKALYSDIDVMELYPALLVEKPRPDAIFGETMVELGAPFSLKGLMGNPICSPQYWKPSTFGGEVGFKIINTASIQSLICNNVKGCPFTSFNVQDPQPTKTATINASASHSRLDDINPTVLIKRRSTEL
Method: (§1) Evaluation of COX-1 and COX-2 activity in vitro
(§2) The COX-2 inhibition activity of the compounds of this invention illustrated in the Examples was determined by the following methods.
(§3) a. Preparation of recombinant COX baculoviruses
(§4) Recombinant COX-1 and COX-2 were prepared as described by Gierse et al, [J. Biochem., 305, 479-84 (1995)]. A 2.0 kb fragment containing the coding region of either human or murine COX-1 or human or murine COX-2 was cloned into a BamH1 site of the baculovirus transfer vector pVL1393 (Invitrogen) to generate the baculovirus transfer vectors for COX-1 and COX-2 in a manner similar to the method of D. R. O'Reilly et al (Baculovirus Expression Vectors: A Laboratory Manual (1992)). Recombinant baculoviruses were isolated by transfecting 4 μg of baculovirus transfer vector DNA into SF9 insect cells (2×10^8) along with 200 ng of linearized baculovirus plasmid DNA by the calcium phosphate method. See M. D. Summers and G. E. Smith, A Manual of Methods for Baculovirus Vectors and Insect Cell Culture Procedures, Texas Agric. Exp. Station Bull. 1555 (1987). Recombinant viruses were purified by three rounds of plaque purification and high titer (10^7 -10^8 pfu/ml) stocks of virus were prepared. For large scale production, SF9 insect cells were infected in 10 liter fermentors (0.5×10^6 /ml) with the recombinant baculovirus stock such that the multiplicity of infection was 0.1. After 72 hours the cells were centrifuged and the cell pellet homogenized in Tris/Sucrose (50 mM: 25%, pH 8.0) containing 1% 3-[(3-cholamidopropyl)dimethylammonio]-1-propanesulfonate (CHAPS). The homogenate was centrifuged at 10,000×G for 30 minutes, and the resultant supernatant was stored at -80° C. before being assayed for COX activity.
(§5) b. Assay for COX-1 and COX-2 activity:
(§6) COX activity was assayed as PGE2 formed/μg protein/time using an ELISA to detect the prostaglandin released. CHAPS-solubilized insect cell membranes containing the appropriate COX enzyme were incubated in a potassium phosphate buffer (50 mM, pH 8.0) containing epinephrine, phenol, and heme with the addition of arachidonic acid (10 μM). Compounds were pre-incubated with the enzyme for 10-20 minutes prior to the addition of arachidonic acid. Any reaction between the arachidonic acid and the enzyme was stopped after ten minutes at 37° C./room temperature by transferring 40 μl of reaction mix into 160 μl ELISA buffer and 25 μM indomethacin. The PGE2 formed was measured by standard ELISA technology (Cayman Chemical).

COX-1 murine = target: T2, COX-1 murine (Mus musculus, UniProt P22437); assay: COX-1 activity in vitro (recombinant enzyme, PGE2 ELISA); format: biochemical; conditions: arachidonic acid 10 μM, pH 8.0, pre-incubation 10-20 min, read-out: COX-1 murine ID50
T2 construct: A 2.0 kb fragment containing the coding region of either human or murine COX-1; made in house; host or cells: SF9 insect cells (recombinant baculovirus, vector pVL1393)
T2 sequence (P22437 27-602): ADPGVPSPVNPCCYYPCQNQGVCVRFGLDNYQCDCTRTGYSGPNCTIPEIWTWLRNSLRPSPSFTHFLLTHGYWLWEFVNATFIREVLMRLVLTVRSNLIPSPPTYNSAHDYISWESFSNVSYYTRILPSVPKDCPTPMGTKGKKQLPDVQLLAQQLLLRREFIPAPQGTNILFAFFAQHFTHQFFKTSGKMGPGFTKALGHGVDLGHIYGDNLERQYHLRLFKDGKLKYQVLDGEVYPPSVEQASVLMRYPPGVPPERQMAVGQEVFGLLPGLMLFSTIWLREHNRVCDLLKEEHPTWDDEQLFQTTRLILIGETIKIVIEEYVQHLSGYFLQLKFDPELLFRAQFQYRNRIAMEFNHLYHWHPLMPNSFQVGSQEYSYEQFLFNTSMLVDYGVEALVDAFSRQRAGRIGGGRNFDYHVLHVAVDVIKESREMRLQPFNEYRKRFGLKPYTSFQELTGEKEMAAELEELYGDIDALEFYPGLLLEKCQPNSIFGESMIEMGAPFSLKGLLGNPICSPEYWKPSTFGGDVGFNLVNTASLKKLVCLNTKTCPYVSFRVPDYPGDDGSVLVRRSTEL
Method: as §1, §2, §3, §4, §5, §6

[1] = COX-2 murine, arachidonic acid 10 μM, pH 8.0, pre-incubation 10-20 min, read-out: COX-2 murine ID50

| SMILES | IC50 (COX-2 murine; [1]) [nM] | IC50 (COX-1 murine) [nM] | IC50 (COX-2 murine) [nM] |
| --- | --- | --- | --- |
| COc1cc(-c2ccc(S(C)(=O)=O)cc2)c(-c2ccc(F)cc2)c(C(F)(F)F)n1 [Example 1, 5-(4-Fluorophenyl)-2-methoxy-4-[4-(methylsulfonyl)phenyl]-6-(trifluoromethyl)pyridine] | > 30000 | 300 | – |
| CCOc1cc(-c2ccc(S(C)(=O)=O)cc2)c(-c2ccc(F)cc2)c(C(F)(F)F)n1 [Example 2, 2-Ethoxy-5-(4-fluorophenyl)-4-[4-(methylsulfonyl)phenyl]-6-(trifluoromethyl)pyridine] | > 30000 | 300 | – |
| C#CCOc1cc(-c2ccc(S(C)(=O)=O)cc2)c(-c2ccc(F)cc2)c(C(F)(F)F)n1 [Example 3, 5-(4-Fluorophenyl)-4-[4-(methylsulfonyl)phenyl]-2-(2-propynyloxy)-6-(trifluoromethyl)pyridine] | – | 200 | > 30000 |
| CS(=O)(=O)c1ccc(-c2cc(Br)nc(C(F)(F)F)c2-c2ccc(F)cc2)cc1 [Example 4, 2-Bromo-5-(4-fluorophenyl)-4-[4-(methylsulfonyl)phenyl]-6-(trifluoromethyl)pyridine] | > 100000 | 600 | – |
